Laboratory results taken from PubChem BioAssay (NCI).
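Protocol summary: plate cells (96-well), add compound at 5 concentrations, incubate 48 h, interpolate endpoints linearly. Abbreviation: GI50, concentration required for 50% inhibition of growth. TGI: concentration producing complete growth inhibition.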

Columns and labels:
Test in all cases: NCI tumour cell line growth inhibition, 48 h
[1] = system: U251 CNS
[2] = system: NCI-H226 lung
[3] = system: SF-295 CNS
[4] = system: 786-0 renal
[5] = system: RXF 393 renal
[6] = system: HCT-15 colon
[7] = system: CCRF-CEM leukemia
[8] = system: NCI/ADR-RES ovarian
[9] = system: DU-145 prostate
[10] = system: OVCAR-8 ovarian
[11] = system: HT29 colon
[12] = system: RPMI-8226 leukemia
[13] = system: MALME-3M melanoma
[14] = system: UACC-62 melanoma
[15] = system: HCT-116 colon
[16] = system: M14 melanoma
[17] = system: T-47D breast
[18] = system: SK-MEL-28 melanoma
[19] = system: MOLT-4 leukemia
[20] = system: EKVX NSCLC
[21] = system: SK-MEL-5 melanoma
[22] = system: IGROV1 ovarian
[23] = system: KM12 colon
[24] = system: A549 NSCLC
[25] = system: BT-549 breast
[26] = system: OVCAR-4 ovarian
[27] = system: LOX IMVI melanoma
[28] = system: HOP-92 NSCLC
[29] = system: SN12C renal
[30] = system: SNB-75 CNS
[31] = system: OVCAR-3 ovarian
[32] = system: SNB-19 CNS
[33] = system: SF-539 CNS
[34] = system: NCI-H23 lung
[35] = system: A498 renal
[36] = system: ACHN renal
[37] = system: SW-620 colon
[38] = system: UO-31 renal
[39] = system: MDA-MB-231 breast
[40] = system: SK-MEL-2 melanoma
[41] = system: PC-3 prostate
[42] = system: NCI-H522 lung
[43] = system: K-562 leukemia
[44] = system: CAKI-1 renal
[45] = system: HL-60(TB) leukemia
[46] = system: OVCAR-5 ovarian
[47] = system: SR leukemia
[48] = system: HS 578T breast
[49] = system: HOP-62 NSCLC
[50] = system: TK-10 renal
[51] = system: MDA-MB-435
[52] = system: NCI-H460 lung
[53] = system: SF-268 CNS
[54] = system: HCC-2998 colon
[55] = system: COLO 205 colon
[56] = system: UACC-257 melanoma
[57] = system: SK-OV-3 ovarian

Q: Which GI50 [1] does the source give for `C=C1C(=O)O[C@H]2[C@H]1CC/C(COC(=O)NCc1[nH]nc3ccccc13)=C\CC[C@@]1(C)O[C@@H]21` here?
A: Its GI50 is 3.16 µM.

Q: What about the TGI [1] of the same compound?
A: Its TGI is 13.7 µM.

Q: And the GI50 [2]?
A: The GI50 was 16.3 µM.

Q: And the TGI [2]?
A: Its TGI is 33.7 µM.

Q: And the GI50 [3]?
A: The GI50 was 7.24 µM.

Q: What about the TGI [3] of the same compound?
A: Its TGI is 21.8 µM.

Q: What about the GI50 [4] of the same compound?
A: Its GI50 is 1.72 µM.

Q: What about the TGI [4] of the same compound?
A: Its TGI is 3.63 µM.

Q: And the GI50 [5]?
A: The GI50 was 0.719 µM.

Q: And the TGI [5]?
A: Its TGI is 2.23 µM.

Q: What about the GI50 [6] of the same compound?
A: The GI50 was 1.07 µM.

Q: And the TGI [6]?
A: Its TGI is 2.64 µM.

Q: What about the GI50 [7] of the same compound?
A: Its GI50 is 0.337 µM.

Q: And the TGI [7]?
A: Its TGI is 2.51 µM.

Q: What about the GI50 [8] of the same compound?
A: The GI50 was 6.22 µM.

Q: And the TGI [8]?
A: The TGI was 22.5 µM.

Q: And the GI50 [9]?
A: The GI50 was 1.24 µM.

Q: And the TGI [9]?
A: Its TGI is 3.03 µM.

Q: What about the GI50 [10] of the same compound?
A: Its GI50 is 2.67 µM.

Q: And the TGI [10]?
A: Its TGI is 12.3 µM.

Q: And the GI50 [11]?
A: The GI50 was 1.18 µM.

Q: What about the TGI [11] of the same compound?
A: Its TGI is 2.69 µM.

Q: And the GI50 [12]?
A: The GI50 was 0.437 µM.

Q: And the TGI [12]?
A: Its TGI is 2.98 µM.

Q: And the GI50 [13]?
A: The GI50 was 2.06 µM.

Q: And the TGI [13]?
A: The TGI was 4.24 µM.

Q: And the GI50 [14]?
A: The GI50 was 1.56 µM.

Q: And the TGI [14]?
A: The TGI was 3.67 µM.

Q: What about the GI50 [15] of the same compound?
A: Its GI50 is 0.839 µM.

Q: And the TGI [15]?
A: The TGI was 2.53 µM.

Q: And the GI50 [16]?
A: The GI50 was 2.03 µM.

Q: What about the TGI [16] of the same compound?
A: The TGI was 5.49 µM.

Q: And the GI50 [17]?
A: The GI50 was 1.74 µM.

Q: And the TGI [17]?
A: Its TGI is 5.43 µM.

Q: What about the GI50 [18] of the same compound?
A: Its GI50 is 1.69 µM.

Q: What about the TGI [18] of the same compound?
A: Its TGI is 3.7 µM.

Q: And the GI50 [19]?
A: The GI50 was 1.71 µM.

Q: And the TGI [19]?
A: Its TGI is 5.97 µM.

Q: And the GI50 [20]?
A: The GI50 was 3.1 µM.

Q: What about the TGI [20] of the same compound?
A: The TGI was 13.4 µM.

Q: What about the GI50 [21] of the same compound?
A: Its GI50 is 2.73 µM.

Q: What about the TGI [21] of the same compound?
A: Its TGI is 10.5 µM.

Q: And the GI50 [22]?
A: Its GI50 is 2.24 µM.

Q: And the TGI [22]?
A: Its TGI is 9.26 µM.

Q: What about the GI50 [23] of the same compound?
A: Its GI50 is 4.25 µM.

Q: And the TGI [23]?
A: The TGI was 18.1 µM.

Q: What about the GI50 [24] of the same compound?
A: The GI50 was 8.61 µM.

Q: What about the TGI [24] of the same compound?
A: Its TGI is 25.7 µM.

Q: And the GI50 [25]?
A: Its GI50 is 2.86 µM.

Q: What about the TGI [25] of the same compound?
A: Its TGI is 8.93 µM.

Q: What about the GI50 [26] of the same compound?
A: The GI50 was 4.06 µM.

Q: And the TGI [26]?
A: The TGI was 17.5 µM.

Q: What about the GI50 [27] of the same compound?
A: The GI50 was 1.05 µM.

Q: What about the TGI [27] of the same compound?
A: The TGI was 2.43 µM.

Q: What about the GI50 [28] of the same compound?
A: Its GI50 is 2.03 µM.

Q: And the TGI [28]?
A: The TGI was 4.11 µM.

Q: And the GI50 [29]?
A: Its GI50 is 1.68 µM.

Q: What about the TGI [29] of the same compound?
A: The TGI was 4.64 µM.

Q: What about the GI50 [30] of the same compound?
A: The GI50 was 5.06 µM.

Q: And the TGI [30]?
A: Its TGI is 21.1 µM.

Q: What about the GI50 [31] of the same compound?
A: The GI50 was 1.06 µM.

Q: And the TGI [31]?
A: The TGI was 2.38 µM.

Q: And the GI50 [32]?
A: The GI50 was 5.31 µM.

Q: What about the TGI [32] of the same compound?
A: Its TGI is 19.6 µM.

Q: And the GI50 [33]?
A: The GI50 was 1.82 µM.

Q: What about the TGI [33] of the same compound?
A: Its TGI is 4.72 µM.

Q: And the GI50 [34]?
A: The GI50 was 2.19 µM.

Q: And the TGI [34]?
A: The TGI was 7.24 µM.

Q: And the GI50 [35]?
A: The GI50 was 12.6 µM.

Q: What about the TGI [35] of the same compound?
A: Its TGI is 26.3 µM.

Q: And the GI50 [36]?
A: The GI50 was 1.11 µM.

Q: And the TGI [36]?
A: The TGI was 2.63 µM.

Q: And the GI50 [37]?
A: Its GI50 is 0.596 µM.

Q: And the TGI [37]?
A: Its TGI is 2.28 µM.

Q: And the GI50 [38]?
A: Its GI50 is 1.51 µM.

Q: What about the TGI [38] of the same compound?
A: Its TGI is 2.95 µM.

Q: What about the GI50 [39] of the same compound?
A: Its GI50 is 1.64 µM.

Q: And the TGI [39]?
A: Its TGI is 3.34 µM.

Q: And the GI50 [40]?
A: Its GI50 is 4.11 µM.

Q: What about the TGI [40] of the same compound?
A: Its TGI is 15.5 µM.

Q: And the GI50 [41]?
A: Its GI50 is 1.67 µM.

Q: What about the TGI [41] of the same compound?
A: Its TGI is 5.79 µM.

Q: What about the GI50 [42] of the same compound?
A: The GI50 was 1.21 µM.

Q: And the TGI [42]?
A: Its TGI is 2.65 µM.

Q: And the GI50 [43]?
A: The GI50 was 0.473 µM.

Q: What about the TGI [43] of the same compound?
A: Its TGI is 17.5 µM.

Q: And the GI50 [44]?
A: The GI50 was 1.37 µM.

Q: What about the TGI [44] of the same compound?
A: The TGI was 3.91 µM.

Q: And the GI50 [45]?
A: Its GI50 is 0.458 µM.

Q: And the TGI [45]?
A: The TGI was 2.73 µM.

Q: What about the GI50 [46] of the same compound?
A: Its GI50 is 2.59 µM.

Q: And the TGI [46]?
A: The TGI was 6.14 µM.

Q: And the GI50 [47]?
A: Its GI50 is 0.27 µM.

Q: And the TGI [47]?
A: The TGI was 2.89 µM.

Q: And the GI50 [48]?
A: Its GI50 is 4.35 µM.

Q: What about the TGI [48] of the same compound?
A: Its TGI is 27.1 µM.

Q: And the GI50 [49]?
A: Its GI50 is 9.72 µM.

Q: What about the TGI [49] of the same compound?
A: Its TGI is 23.4 µM.

Q: And the GI50 [50]?
A: The GI50 was 1.82 µM.

Q: And the TGI [50]?
A: Its TGI is 3.49 µM.

Q: And the GI50 [51]?
A: The GI50 was 1.64 µM.

Q: What about the TGI [51] of the same compound?
A: Its TGI is 4.42 µM.

Q: What about the GI50 [52] of the same compound?
A: The GI50 was 3.9 µM.

Q: And the TGI [52]?
A: Its TGI is 15.5 µM.

Q: What about the GI50 [53] of the same compound?
A: The GI50 was 5.52 µM.

Q: What about the TGI [53] of the same compound?
A: The TGI was 20 µM.

Q: And the GI50 [54]?
A: The GI50 was 2.78 µM.

Q: What about the TGI [54] of the same compound?
A: Its TGI is 8.97 µM.

Q: What about the GI50 [55] of the same compound?
A: The GI50 was 1.27 µM.

Q: What about the TGI [55] of the same compound?
A: The TGI was 2.93 µM.

Q: And the GI50 [56]?
A: Its GI50 is 2.13 µM.

Q: What about the TGI [56] of the same compound?
A: The TGI was 5.01 µM.

Q: And the GI50 [57]?
A: Its GI50 is 11.8 µM.

Q: What about the TGI [57] of the same compound?
A: The TGI was 24.4 µM.
